Laboratory results from ChEMBL document CHEMBL1201862, “PubChem BioAssay data set” (2004).
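Protocol summary: plate cells (96-well), add compound at 5 concentrations, incubate 48 h, interpolate endpoints linearly. GI50: concentration for 50% inhibition of growth.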 The source made the active and inactive calls. No stated cut-off is given here; in the data, active = GI50 up to about 1.1 µM and inactive = higher.

Columns and labels:
Assay in all cases: NCI tumour cell line growth inhibition, 48 h
[1] = system: OVCAR-4
[2] = system: HOP-92
[3] = system: UACC-257
[4] = system: BT-549
[5] = system: UO-31
[6] = system: M14
[7] = system: NCI/ADR-RES
[8] = system: SF-539
[9] = system: LOX IMVI
[10] = system: OVCAR-8
[11] = system: SF-295
[12] = system: SNB-19
[13] = system: A549
[14] = system: T47D
[15] = system: MCF7
[16] = system: SK-MEL-28
[17] = system: NCI-H226
[18] = system: Hs-578T
[19] = system: ACHN
[20] = system: RXF 393

Measured: GI50

c1cc2sc1CSCCSCCSC2
inactive: [1] > 100 µM | [2] > 100 µM | [3] > 100 µM | [4] > 100 µM | [5] > 100 µM | [6] > 100 µM | [7] > 100 µM | [8] > 100 µM | [9] > 100 µM | [10] > 100 µM | [11] > 100 µM | [12] > 100 µM | [13] > 100 µM | [14] > 100 µM | [15] > 100 µM | [16] > 100 µM

CCOC(CN=C=S)OCC
inactive: [1] > 10 µM | [2] 7.67 µM | [3] > 10 µM | [17] > 10 µM | [5] > 10 µM | [6] > 10 µM | [18] > 10 µM | [7] > 10 µM | [19] > 10 µM | [8] > 10 µM | [9] > 10 µM | [10] > 10 µM | [11] > 10 µM | [12] > 10 µM | [13] > 10 µM | [14] > 10 µM | [15] 9.27 µM | [16] > 10 µM | [20] > 10 µM

COc1ccc(OC)c(/C=C2/C(=O)N/C(=N\C(C)=O)N2C)c1
inactive: [1] > 100 µM | [2] > 100 µM | [3] > 100 µM | [17] > 100 µM | [4] > 100 µM | [5] > 100 µM | [6] > 100 µM | [18] > 100 µM | [7] > 100 µM | [19] > 100 µM | [8] > 100 µM | [9] > 100 µM | [10] > 100 µM | [11] > 100 µM | [12] > 100 µM | [13] > 100 µM | [15] > 100 µM | [16] > 100 µM | [20] > 100 µM

Cc1c(C)c2ccc(O)cc2[nH]c1=O
inactive: [1] > 100 µM | [2] > 100 µM | [3] > 100 µM | [17] > 100 µM | [4] > 100 µM | [5] > 100 µM | [6] > 100 µM | [7] > 100 µM | [19] > 100 µM | [8] > 100 µM | [9] > 100 µM | [10] > 100 µM | [11] > 100 µM | [12] > 100 µM | [13] > 100 µM | [14] > 100 µM | [15] > 100 µM | [16] > 100 µM | [20] > 100 µM

CCC1(O)CC(c2ccccc2)N(C)C(c2ccccc2)C1 (stereo not drawn)
inactive: [1] > 100 µM | [2] > 100 µM | [3] > 100 µM | [17] > 100 µM | [5] > 100 µM | [6] > 100 µM | [19] > 100 µM | [8] > 100 µM | [9] > 100 µM | [10] > 100 µM | [11] > 100 µM | [12] > 100 µM | [13] > 100 µM | [16] > 100 µM | [20] > 100 µM

C=C(C)CCC(=O)[C@](C)(O)[C@H]1[C@H](O)C[C@@]2(C)[C@@H]3CCc4c(cc(OC5OC(CO)C(O)C(O)C5O)c(O)c4C)C3(C)C(=O)C[C@]12C (stereo partly drawn)
inactive: [1] > 100 µM | [2] > 100 µM | [3] > 100 µM | [17] > 100 µM | [4] > 100 µM | [5] > 100 µM | [6] > 100 µM | [7] > 100 µM | [19] > 100 µM | [8] > 100 µM | [9] > 100 µM | [10] > 100 µM | [11] > 100 µM | [12] > 100 µM | [13] > 100 µM | [14] > 100 µM | [15] > 100 µM | [16] > 100 µM | [20] > 100 µM

CC1(C)C(O)C[C@]23CCC[C@](C)(C[C@@H](O)C12)C3 (stereo partly drawn)
inactive: [1] > 100 µM | [2] > 100 µM | [3] > 100 µM | [17] > 100 µM | [4] > 100 µM | [5] > 100 µM | [6] > 100 µM | [18] > 100 µM | [7] > 100 µM | [19] > 100 µM | [9] > 100 µM | [10] > 100 µM | [11] > 100 µM | [12] > 100 µM | [13] 38.2 µM | [15] > 100 µM | [16] > 100 µM

CC(=O)C1C(=O)C(=O)N(c2ccc([N+](=O)[O-])cc2Cl)C1=O (stereo not drawn)
inactive: [1] > 100 µM | [2] 56.6 µM | [3] > 100 µM | [17] > 100 µM | [4] > 100 µM | [5] 56.1 µM | [6] > 100 µM | [18] > 100 µM | [7] > 100 µM | [19] > 100 µM | [8] > 100 µM | [9] > 100 µM | [10] > 100 µM | [11] > 100 µM | [12] > 100 µM | [13] > 100 µM | [15] > 100 µM | [16] > 100 µM | [20] 97.9 µM
